Molecular target: T1, NosL (Streptomyces actuosus, UniProt C6FX51)
T1 sequence (C6FX51 1-400): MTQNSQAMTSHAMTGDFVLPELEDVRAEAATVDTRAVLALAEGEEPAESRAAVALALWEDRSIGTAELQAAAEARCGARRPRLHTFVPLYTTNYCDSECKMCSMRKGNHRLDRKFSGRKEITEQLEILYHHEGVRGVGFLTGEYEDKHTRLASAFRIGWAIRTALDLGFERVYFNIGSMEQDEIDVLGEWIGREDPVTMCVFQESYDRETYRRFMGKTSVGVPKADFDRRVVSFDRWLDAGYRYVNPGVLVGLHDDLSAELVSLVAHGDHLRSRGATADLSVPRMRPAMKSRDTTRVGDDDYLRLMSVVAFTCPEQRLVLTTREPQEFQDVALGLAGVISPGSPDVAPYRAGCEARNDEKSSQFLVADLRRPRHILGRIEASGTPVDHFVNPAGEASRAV
Conditions: with L-Trp; otherwise same

In the case of C[S+](CC[C@H](N)C(=O)O)C[C@H]1O[C@@H](n2cnc3c(N)ncnc32)[C@H](O)[C@@H]1O (stereo partly shown) [S-AdoMet], the “HPLC-MS of product 5'-deoxyadenosine” value is reported as “S-AdoMet consumption was independent of L-Trp, but significantly enhanced by adding L-Trp”.

Reference: paper PMC3079562 (Nature chemical biology, 2011)
